Experiment [1] deals with Alternaria alternata AL19. In words: MIC, micro-spectrophotometric growth assay (phytopathogens). It counts as cell-based. To be noted: for MIC: Alternaria alternata AL19, PDB, 24 °C, dark, imazalil at label dose, read-out: Minimum inhibitory concentration (MIC).
Another experiment has as its system Botrytis cinerea B2. Described as above. It counts as cell-based. Conditions: for MIC: Botrytis cinerea B2, PDB, 24 °C, dark, imazalil at label dose, read-out: Minimum inhibitory concentration (MIC).
The test system of experiment [2] is Colletotrichum acutatum s.s. M146-2. The description is as above. Format: cell-based, Colletotrichum acutatum sensu stricto. To be noted: for MIC: Colletotrichum acutatum s.s. M146-2, PDB, 24 °C, dark, imazalil at label dose, read-out: Minimum inhibitory concentration (MIC).
For a further experiment, the system named is Coniella granati M0_C2. The experiment is described as above. It counts as cell-based. Conditions: for growth reduction: C. granati, 48 h of incubation; for MIC: Coniella granati M0_C2, PDB, 24 °C, dark, imazalil at label dose, read-out: Minimum inhibitory concentration (MIC).
For another experiment, the system named is Candida albicans SC 5314. In words: MIC, broth microdilution (human pathogens). Format: cell-based. To be noted: SC5314; Candida albicans SC 5314; SDB, 30 °C, 48 h; read-out: Minimum inhibitory concentration (MIC).
A further experiment relates to Candida albicans 1. In words: MIC, broth microdilution (human pathogens). It counts as cell-based. Conditions: Candida albicans 1; SDB, 30 °C, 48 h; read-out: Minimum inhibitory concentration (MIC).
In another experiment the test system is Candida albicans 2. As to the kind of experiment: MIC, broth microdilution (human pathogens). Format: cell-based. Conditions: Candida albicans 2; SDB, 30 °C, 48 h; read-out: Minimum inhibitory concentration (MIC).
The subject of a further experiment is Candida albicans H. As to the kind of experiment: MIC, broth microdilution (human pathogens). Conditions: Candida albicans H; SDB, 30 °C, 48 h; read-out: Minimum inhibitory concentration (MIC). Format: cell-based.
A further experiment relates to Candida albicans 41. As to the kind of experiment: MIC, broth microdilution (human pathogens). To be noted: Candida albicans 41; SDB, 30 °C, 48 h; read-out: Minimum inhibitory concentration (MIC). It counts as cell-based.
A further experiment deals with Candida albicans 44. As to the kind of experiment: MIC, broth microdilution (human pathogens). Format: cell-based. Conditions: Candida albicans 44; SDB, 30 °C, 48 h; read-out: Minimum inhibitory concentration (MIC).
In a further experiment the test system is Candida parapsilosis. In words: MIC, broth microdilution (human pathogens). It counts as cell-based. To be noted: Lodderomyces parapsilosis; Candida parapsilosis; SDB, 30 °C, 48 h; read-out: Minimum inhibitory concentration (MIC).
Another experiment deals with Candida zeylanoides 33. In words: MIC, broth microdilution (human pathogens). To be noted: Dujonia zeylanoides; Candida zeylanoides 33; SDB, 30 °C, 48 h; read-out: Minimum inhibitory concentration (MIC). It counts as cell-based.
The test system of experiment [3] is Aspergillus brasiliensis ATCC 16404. As to the kind of experiment: MIC, broth microdilution (human pathogens). It counts as cell-based. Conditions: ATCC16404; Aspergillus brasiliensis ATCC 16404; SDB, 30 °C, 48 h; read-out: Minimum inhibitory concentration (MIC).
The test system of another experiment is Aspergillus candidus 3. As to the kind of experiment: MIC, broth microdilution (human pathogens). It counts as cell-based. To be noted: Aspergillus candidus 3; SDB, 30 °C, 48 h; read-out: Minimum inhibitory concentration (MIC).
Another experiment concerns Aspergillus candidus 25. As to the kind of experiment: MIC, broth microdilution (human pathogens). It counts as cell-based. Conditions: Aspergillus candidus 25; SDB, 30 °C, 48 h; read-out: Minimum inhibitory concentration (MIC).
For a further experiment, the system named is Cryptococcus 67. As to the kind of experiment: MIC, broth microdilution (human pathogens). Format: cell-based. Conditions: Cryptococcus 67; SDB, 30 °C, 48 h; read-out: Minimum inhibitory concentration (MIC).
Experiment [4] deals with Cryptococcus var. grubii H99 serotype A. As to the kind of experiment: MIC, broth microdilution (human pathogens). Format: cell-based. To be noted: Cryptococcus var. grubii H99 serotype A; SDB, 30 °C, 48 h; read-out: Minimum inhibitory concentration (MIC).
Experiment [5] addresses T1, topoisomerase I from Candida albicans (Candida albicans, UniProt Q00313).
T1 sequence (Q00313 1-778): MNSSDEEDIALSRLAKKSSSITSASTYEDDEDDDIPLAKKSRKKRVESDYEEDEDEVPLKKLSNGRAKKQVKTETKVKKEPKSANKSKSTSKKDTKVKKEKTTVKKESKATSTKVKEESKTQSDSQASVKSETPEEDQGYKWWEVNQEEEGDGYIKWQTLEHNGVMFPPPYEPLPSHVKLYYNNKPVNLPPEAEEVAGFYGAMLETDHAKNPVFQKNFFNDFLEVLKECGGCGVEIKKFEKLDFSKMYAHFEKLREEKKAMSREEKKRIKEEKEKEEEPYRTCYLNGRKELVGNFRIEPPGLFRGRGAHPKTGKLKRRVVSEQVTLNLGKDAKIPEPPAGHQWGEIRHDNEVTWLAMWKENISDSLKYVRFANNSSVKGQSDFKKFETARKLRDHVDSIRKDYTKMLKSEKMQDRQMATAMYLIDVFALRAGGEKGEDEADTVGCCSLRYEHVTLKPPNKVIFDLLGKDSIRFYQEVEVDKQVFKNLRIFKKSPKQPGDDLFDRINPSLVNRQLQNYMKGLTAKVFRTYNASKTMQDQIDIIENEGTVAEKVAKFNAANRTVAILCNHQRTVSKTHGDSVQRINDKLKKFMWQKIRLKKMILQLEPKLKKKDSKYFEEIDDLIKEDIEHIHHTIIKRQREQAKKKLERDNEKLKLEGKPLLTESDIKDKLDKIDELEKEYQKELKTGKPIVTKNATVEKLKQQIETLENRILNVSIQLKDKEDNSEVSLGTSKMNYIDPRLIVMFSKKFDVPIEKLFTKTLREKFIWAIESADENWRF
As to the kind of experiment: Topoisomerase I supercoiled DNA relaxation inhibition. It counts as biochemical. Conditions: mean ± SD; relaxation of supercoiled pBR322; concentration range 0.001–200 μM; read-out: IC50 Value Topoisomerase I.

The next experiment relates to Candida strains. In words: Agar Disk Diffusion Assay, Candida strains. It counts as cell-based.

The record followed here is publication PMC8073005, “Antifungal Activity and DNA Topoisomerase Inhibition of Hydrolysable Tannins from Punica granatum L” (International Journal of Molecular Sciences, 2021).

≈ marks a conversion by molar mass, not a printed value. Where “and” joins values, the source holds several entries; their conditions need not be identical. Equal values may be shown once. Read-outs that look alike come from different tables or passages of the source.

As to `O=C1OC[C@H]2OC(O)[C@H](O)[C@@H](O)[C@@H]2OC(=O)c2cc(O)c(O)c(O)c2-c2c(O)c(O)c3oc(=O)c4c(c(O)c(O)c5oc(=O)c2c3c54)-c2c1cc(O)c(O)c2O` (mixture of isomers) [Punicalin, punicalin], the MIC in [1] was 255.6 µM and 256 µM; in the experiment on Botrytis cinerea B2 it was 255.6 µM and 256 µM; in experiment [2], 255.6 µM; in experiment [2] (S.S.M1462), 256 µM; in the experiment on Coniella granati M0_C2, 255.6 µM and 256 µM; in the experiment with Candida albicans SC 5314 it was 127 µM. The MIC is 3.8 µM in the experiment with Candida albicans 1; 3.8 µM with Candida albicans 2; 1.9 µM in the experiment with Candida albicans H; 127 µM in the experiment with Candida albicans 41; 127 µM with Candida albicans 44; 127 µM in the experiment with Candida parapsilosis. The MIC in the experiment with Candida zeylanoides 33 stood at 127 µM; in experiment [3], 1.9 µM; in the experiment with Aspergillus candidus 3 it was 127 µM; with Aspergillus candidus 25, 127 µM; in the experiment with Cryptococcus 67 it was 127 µM; in experiment [4] it was 127 µM. In addition, the growth reduction is 83% in [2] (C. acutatum s.s., up to 24 h of incubation) and “up to 92%” in the experiment with Coniella granati M0_C2. Further, the IC50 in experiment [5] was found to be 14.7 ± 0.9 µM. For the same compound, the “share of Candida strains with inhibition zone from 11 to 20 mm” value with Candida strains (100 µg) is listed as 91%.

As to `O=c1oc2c(O)c(O)cc3c(=O)oc4c(O)c(O)cc1c4c23` [Ellagic Acid, ellagic acid], the “antifungal activity (growth curve)” value is “no or little antifungal activity” in [1] (A. alternata, Figure S3) and “no or little antifungal activity” in the experiment on Botrytis cinerea B2 (B. cinerea, Figure S3). In addition, the MIC in experiment [1] was 165.4 µM and 165 µM; in the experiment on Botrytis cinerea B2, 165.4 µM and 165 µM; in [2], 165.4 µM (≈ 50 µg/mL); in experiment [2] (S.S.M1462), 165 µM (≈ 50 µg/mL); in the experiment on Coniella granati M0_C2 it was 165.4 µM and 165 µM; in the experiment with Candida albicans SC 5314, 2.5 µM (≈ 0.755 µg/mL). Further, the MIC with Candida albicans 1 worked out at 5 µM (≈ 1.51 µg/mL); in the experiment on Candida albicans 2, 2.5 µM (≈ 0.755 µg/mL); in the experiment on Candida albicans H, 331 µM (≈ 100 µg/mL); with Candida albicans 41, 331 µM (≈ 100 µg/mL); in the experiment with Candida albicans 44 it was 2.5 µM (≈ 0.755 µg/mL); in the experiment on Candida parapsilosis, 662 µM (≈ 200 µg/mL). Also, the MIC in the experiment on Candida zeylanoides 33 stood at 331 µM (≈ 100 µg/mL); in [3] it was 662 µM (≈ 200 µg/mL); with Aspergillus candidus 3, 662 µM (≈ 200 µg/mL); with Aspergillus candidus 25, 662 µM (≈ 200 µg/mL); in the experiment with Cryptococcus 67, 662 µM (≈ 200 µg/mL); in [4], 662 µM (≈ 200 µg/mL). In addition, the growth reduction result in the experiment on Coniella granati M0_C2 is “up to 60%”. Moreover, in experiment [5], the IC50 came out at 56.6 ± 1.2 µM. In the experiment with Candida strains (25 μg), the “share of Candida strains with inhibition zone from 21 to 30 mm” value worked out at 64%. Moreover, in the experiment with Candida strains (25 μg), the “share of Candida tested strains with growth inhibition zone from 11 to 20 mm” value turned out to be 36%. The “share of Candida strains with growth inhibition from 21 to 30 mm” value with Candida strains (62.5 µg) worked out at 73%.
